From patent US20240083872A1, “CYCLIC AMINE DERIVATIVES HAVING SEROTONIN RECEPTOR BINDING ACTIVITY” (Shionogi & Co., Ltd., priority 2020, published 2024)
Read-outs that look alike come from different tables or passages of the source.

Assays:
[1] = molecular target: human recombinant 5-HT2C receptor (Homo sapiens (Human), UniProt P28335); test: 5-HT2C receptor binding inhibition test ([3H]-Mesulergine); conditions: Jump-In HEK cell membrane, [3H]-Mesulergine
Method: (§1) (Each Experimental Condition)
Cell membrane: Jump-In HEK cell membrane (expressing human recombinant 5-HT2C receptor)
(§2) Assay buffer: Tris-HCl 50 mmol/L (pH 7.4) containing NaCl 120 mmol/L, MgCl2.6H2O 1 mmol/L, KCl 5 mmol/L, 0.1% BSA, and CaCl2 2 mmol/L
Radioactive ligand: [^3H]-Mesulergine around Kd value calculated by the following method
(§3) Non-specific ligand: Serotonin HCl
The Kd value was calculated when the lot of cell membrane was changed. In advance, 0.5 μL of a 1 mmol/L compound for non-specific binding calculation dissolved in DMSO or DMSO was dispensed into a microplate, and the cell membrane was diluted with an Assay buffer. The radioactive ligand solution was serially diluted and the count was confirmed with a liquid scintillator. Assay buffer containing diluted cell membrane was dispensed into a microplate at 50 μL/well. Then, the radioactive ligand solution was dispensed into a microplate at 50 μL/well, and the plate was sealed. It was allowed to stand at room temperature (25° C.) for 1.5 hours. During this period, 50 mmol/L Tris-HCl (pH 7.4) was dispensed into a GF/B UniFilter plate at 50 μL/well and allowed to stand at […] for 1 hour or longer. After that, filtration was performed with Cell harvester (PerkinElmer). The radioactive ligand solution was dispensed into an empty well of the GF/B UniFilter plate at 10 μL/well. After the GF/B UniFilter plate was dried at room temperature, MicroScinti 20 was dispensed into the GF/B UniFilter plate at 50 μL/well, and the plate was sealed. The GF/B UniFilter plate was allowed to stand overnight at room temperature. […] The Saturation curve was drawn from the measured value, and the Kd value was calculated from the slope of the Scatchard Plot.
(§4) (Binding Test of the Compound According to the Present Invention)
In advance, 0.5 μL of the compound solution dissolved in DMSO was dispensed into a microplate, and the cell membrane and the hot ligand were diluted with Assay buffer, respectively. Then, the Assay buffer containing the diluted cell membrane was dispensed into a microplate at 50 μL/well. Then, the radioactive ligand solution was dispensed into a microplate at 50 μL/well, and the plate was sealed. Then, it was allowed to stand at 37° C. for 2 hours. During this period, 50 mmol/L Tris-HCl (pH 7.4) was dispensed into a GF/B UniFilter plate at 50 μL/well and allowed to stand at 4° C. for 1 hour or longer. After that, filtration was performed with Cell harvester (PerkinElmer). After the GF/B UniFilter plate was dried at room temperature, MicroScinti 20 was dispensed into the GF/B UniFilter plate at 50 μL/well, and the plate was sealed. The GF/B UniFilter plate was allowed to stand overnight at room temperature. […] The non-specific binding was calculated from the radioactivity of [^3H]-Mesulergine in the presence of […] Serotonin HCl with the unlabeled ligand, and the total binding was calculated from the radioactivity of [^3H]-Mesulergine in the absence of the compound according to the present invention (Vehicle). Finally, the Ki value was calculated from the dose-response curve.
(§5) (The binding activity of the compound according to the present invention was calculated from the following binding inhibition rate (%).)
(§6) Inhibition rate (%)=[1−(c−a)/(b−a)]×100 • a; mean cpm of non-specific binding • b; mean cpm of total binding • c; cpm in the presence of the test compound

[2] = molecular target: human recombinant 5-HT2A receptor (Homo sapiens (Human), UniProt P28223); test: 5-HT2A receptor binding inhibition test ([3H]-Ketanserin); conditions: Jump-In HEK cell membrane
Method: Test Example 1: 5-HT2A Receptor Binding Inhibition Test
as §1
Cell membrane: Jump-In HEK cell membrane (expressing human recombinant 5-HT2A receptor)
as §2
Radioactive ligand: [^3H]-Ketanserin around Kd value calculated by the following method
as §3
The Kd value was calculated when the lot of cell membrane was changed. In advance, 0.5 μL of a 1 mmol/L compound for non-specific binding calculation dissolved in DMSO or DMSO was dispensed into a microplate, and the cell membrane was diluted with an Assay buffer. The radioactive ligand solution was serially diluted and the count was confirmed with a liquid scintillator. Assay buffer containing diluted cell membrane was dispensed into a microplate at 50 μL/well. Then, the radioactive ligand solution was dispensed into a microplate at 50 μL/well, and the plate was sealed. It was allowed to stand at room temperature (25° C.) for 1.5 hours. During this period, 50 mmol/L Tris-HCl (pH 7.4) was dispensed into a GF/B UniFilter plate at 50 μL/well and allowed to stand at 4° C. for 1 hour or longer. After that, filtration was performed with Cell harvester (PerkinElmer). The radioactive ligand solution was dispensed into an empty well of the GF/B UniFilter plate at 10 μL/well. After the GF/B UniFilter plate was dried at room temperature, MicroScinti 20 was dispensed into the GF/B UniFilter plate at 50 μL/well, and the plate was sealed. The GF/B UniFilter plate was allowed to stand overnight at room temperature. The radioactivity of [^3H]-Ketanserin bound to the 5-HT2A receptor was measured using Microbeta2 (PerkinElmer) at a measurement time of 1 min/well. The Saturation curve was drawn from the measured value, and the Kd value was calculated from the slope of the Scatchard Plot.
as §4
In advance, 0.5 μL of the compound solution dissolved in DMSO was dispensed into a microplate, and the cell membrane and the hot ligand were diluted with Assay buffer, respectively. Then, the Assay buffer containing the diluted cell membrane was dispensed into a microplate at 50 μL/well. Then, the radioactive ligand solution was dispensed into a microplate at 50 μL/well, and the plate was sealed. Then, it was allowed to stand at room temperature (25° C.) for 1.5 hours. During this period, 50 mmol/L Tris-HCl (pH 7.4) was dispensed into a GF/B UniFilter plate at 50 μL/well and allowed to stand at 4° C. for 1 hour or longer. After that, filtration was performed with Cell harvester (PerkinElmer). After the GF/B UniFilter plate was dried at room temperature, MicroScinti 20 was dispensed into the GF/B UniFilter plate at 50 μL/well, and the plate was sealed. The GF/B UniFilter plate was allowed to stand overnight at room temperature. The radioactivity of [^3H]-Ketanserin bound to the 5-HT2A receptor was measured using Microbeta2 (PerkinElmer) at a measurement time of 1 min/well. The non-specific binding was calculated from the radioactivity of [^3H]-Ketanserin in the presence of […] Serotonin HCl with the unlabeled ligand, and the total binding was calculated from the radioactivity of [^3H]-Ketanserin in the absence of the compound according to the present invention (Vehicle). Finally, the Ki value was calculated from the dose-response curve.
as §5, §6

[3] = read-out: human serotonin 5-HT2C receptor binding inhibitory activity, Ki value
[4] = read-out: human serotonin 5-HT2A receptor binding activity, Ki value

Sequence of human recombinant 5-HT2A receptor (P28223 whole entry): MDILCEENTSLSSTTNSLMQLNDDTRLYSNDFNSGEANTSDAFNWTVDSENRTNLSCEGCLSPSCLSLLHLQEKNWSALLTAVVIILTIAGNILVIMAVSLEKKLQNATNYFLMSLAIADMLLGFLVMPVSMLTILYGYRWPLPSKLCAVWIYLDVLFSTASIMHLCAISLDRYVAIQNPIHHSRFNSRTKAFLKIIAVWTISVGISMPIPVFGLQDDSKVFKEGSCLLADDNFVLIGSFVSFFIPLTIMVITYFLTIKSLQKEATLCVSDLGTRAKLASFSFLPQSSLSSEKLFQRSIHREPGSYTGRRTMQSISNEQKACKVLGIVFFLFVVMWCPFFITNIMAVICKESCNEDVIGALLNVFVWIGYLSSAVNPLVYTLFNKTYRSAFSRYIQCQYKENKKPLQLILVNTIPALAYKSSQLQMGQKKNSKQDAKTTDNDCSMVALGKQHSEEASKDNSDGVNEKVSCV
Sequence of human recombinant 5-HT2C receptor (P28335 33-458): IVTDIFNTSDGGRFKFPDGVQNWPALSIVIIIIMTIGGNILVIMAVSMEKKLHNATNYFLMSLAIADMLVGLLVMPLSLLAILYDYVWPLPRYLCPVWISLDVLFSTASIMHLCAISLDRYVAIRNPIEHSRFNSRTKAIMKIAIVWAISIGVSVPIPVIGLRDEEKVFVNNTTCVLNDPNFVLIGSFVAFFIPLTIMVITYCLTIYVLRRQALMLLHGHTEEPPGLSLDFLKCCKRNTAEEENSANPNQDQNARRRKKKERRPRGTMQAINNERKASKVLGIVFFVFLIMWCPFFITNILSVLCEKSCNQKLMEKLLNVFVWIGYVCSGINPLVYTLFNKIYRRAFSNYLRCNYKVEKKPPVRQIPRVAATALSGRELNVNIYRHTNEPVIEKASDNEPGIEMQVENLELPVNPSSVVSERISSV

| Structure (SMILES) | Ki ([1]; read-out: h-5-HT2C Ki) | Ki ([2]; read-out: h-5-HT2A Ki) | Ki [1, 3] | Ki [2, 4] |
| --- | --- | --- | --- | --- |
| CCCCOc1ccc(CN(Cc2coc(C)n2)C(=O)NC2CCN(C)CC2)cc1F [Compound I-087] | < 10 nM | < 10 nM | – | – |
| CCCCOc1ccc(CN(Cc2coc(C)n2)C(=O)N[C@H]2CCN(C)CC23CC3)cc1 [Compound I-089] | < 10 nM | < 10 nM | – | – |
| CCCCOc1ccc(CN(Cc2coc(C)n2)C(=O)N[C@H]2CCN(C)CC23CC3)cc1F [Compound I-090] | < 10 nM | < 10 nM | – | – |
| CCCCOc1ccc(CN(Cc2coc(C)n2)C(=O)N[C@H]2CCN(C)CC23CC3)c(F)c1 [Compound I-091] | < 10 nM | < 10 nM | – | – |
| CC(C)COc1ccc(CN(Cc2ccn(C)c2)C(=O)OC2CCN(C)CC2)cc1 [Compound I-092] | < 10 nM | < 10 nM | – | – |
| CC(C)COc1ccc(CN(Cc2ccc(F)cn2)C(=O)OC2CCN(C)CC2)cc1 [Compound I-093] | 10 to 100 nM | < 10 nM | – | – |
| COc1ccc(CN(Cc2ccn(C)c2)C(=O)OC2CCN(C)CC2)cc1 [Compound I-094] | 10 to 100 nM | < 10 nM | – | – |
| COc1ccc(CN(Cc2coc(C)n2)C(=O)OC2CCN(C)CC2)cc1 [Compound I-095] | 10 to 100 nM | 10 to 100 nM | – | – |
| CCCCOc1ccc(CN(Cc2cnn(C)n2)C(=O)N[C@H]2CCN(C)CC23CC3)cc1F [Compound I-096] | < 10 nM | < 10 nM | – | – |
| CCCCOc1ccc(CN(Cc2cnn(C)n2)C(=O)N[C@H]2CCN(C)CC23CC3)c(F)c1 [Compound I-097] | < 10 nM | < 10 nM | – | – |
| CCCCOc1ccc(CN(Cc2cnn(C)n2)C(=O)N[C@H]2CCN(C)CC23CC3)cc1 [Compound I-098] | < 10 nM | < 10 nM | – | – |
| CCCCOc1ccc(CN(Cc2cnn(C)n2)C(=O)NC2CCN(C)CC2)cc1F [Compound I-100] | < 10 nM | < 10 nM | – | – |
| CC(C)COc1ccc(CN(Cc2cnn(C)n2)C(=O)NC2CCN(C)CC2)cc1 [Compound I-101] | – | – | 0.461 nM | 0.683 nM |
| CC(C)COc1ccc(CN(Cc2cnn(C)n2)C(=O)N[C@H]2CCN(C)CC23CC3)cc1 [Compound I-103] | – | – | 0.634 nM | 1.89 nM |
| Cc1nc(CN(Cc2ccc(CCC(F)(F)F)cc2F)C(=O)NC2CCN(C)CC2)co1 [Compound I-104] | – | – | 0.484 nM | 0.952 nM |
| Cc1nc(CN(Cc2ccc(CCC(F)(F)F)cc2)C(=O)NC2CCN(C)CC2)co1 [Compound I-105] | < 10 nM | < 10 nM | – | – |
| CCCCOc1ccc(CN(Cc2coc(C)n2)C(=O)CN2CCN(C)CC2)cc1 [Compound I-106] | < 10 nM | < 10 nM | – | – |
| CCCc1ccc(CN(Cc2coc(C)n2)C(=O)NC2CCN(C)CC2)cc1F [Compound I-107] | – | – | 0.34 nM | 0.549 nM |

| Structure (SMILES) | Ki ([1]; read-out: h-5-HT2C Ki) | Ki ([2]; read-out: h-5-HT2A Ki) | Ki [1, 3] | Ki [2, 4] |
| --- | --- | --- | --- | --- |
| CCCc1ccc(CN(Cc2coc(C)n2)C(=O)NC2CCN(C)CC2)cc1 [Compound I-108] | < 10 nM | < 10 nM | – | – |
| CCCCOc1ccc(CN(Cc2coc(C(F)F)n2)C(=O)NC2CCN(C)CC2)cc1 [Compound I-109] | – | – | 0.463 nM | 0.43 nM |
| CCCCOc1ccc(CN(Cc2coc(C3CC3)n2)C(=O)NC2CCN(C)CC2)cc1 [Compound I-110] | – | – | 0.301 nM | 0.537 nM |
| CN1CCC(NC(=O)N(Cc2ccc(OCC(F)(F)F)cc2)Cc2coc(C3CC3)n2)CC1 [Compound I-111] | < 10 nM | < 10 nM | – | – |
| CN1CCC(NC(=O)N(Cc2coc(C3CC3)n2)Cc2ccc(OCC(F)(F)F)cc2F)CC1 [Compound I-112] | < 10 nM | < 10 nM | – | – |
| CCCCOc1ccc(CN(Cc2coc(C)n2)C(=O)NC2CCN(C)CC2)c(F)c1 [Compound I-113] | < 10 nM | < 10 nM | – | – |
| CCCc1ccc(CN(Cc2coc(C)n2)C(=O)NC2CCN(C)CC2)c(F)c1 [Compound I-114] | < 10 nM | < 10 nM | – | – |
| Cc1nc(CN(Cc2ccc(OCC(C)C)c(F)c2)C(=O)NC2CCN(C)CC2)co1 [Compound I-115] | < 10 nM | < 10 nM | – | – |
| CC(C)COc1ccc(CN(Cc2cnn(C)n2)C(=O)NC2CCN(C)CC2)cc1F [Compound I-116] | < 10 nM | < 10 nM | – | – |
| Cc1nc(CN(Cc2ccc(OCC(C)C)cc2F)C(=O)NC2CCN(C)CC2)co1 [Compound I-117] | – | – | 0.315 nM | 0.82 nM |
| CC(C)COc1ccc(CN(Cc2cnn(C)n2)C(=O)NC2CCN(C)CC2)c(F)c1 [Compound I-118] | – | – | 0.371 nM | 1.03 nM |
| CCCCOc1ccc(CN(Cc2coc(CF)n2)C(=O)NC2CCN(C)CC2)cc1 [Compound I-119] | < 10 nM | < 10 nM | – | – |
| CC(C)COc1ccc(CN(Cc2coc(CF)n2)C(=O)NC2CCN(C)CC2)cc1 [Compound I-120] | < 10 nM | < 10 nM | – | – |
| Cc1nc(CN(Cc2ccc(OCC(F)(F)C(F)(F)F)cc2F)C(=O)NC2CCN(C)CC2)co1 [Compound I-121] | < 10 nM | < 10 nM | – | – |
| CN1CCC(NC(=O)N(Cc2cnn(C)n2)Cc2ccc(OCC(F)(F)C(F)(F)F)cc2F)CC1 [Compound I-122] | – | – | 0.281 nM | 0.824 nM |
| CCCCOc1ccc(CN(Cc2coc(C)n2)C(=O)CC2CCN(C)CC2)cc1F [Compound I-123] | – | – | 1.39 nM | 0.506 nM |
| CCCCOc1ccc(CN(Cc2coc(C)n2)C(=O)CN2CCN(C)CC2)cc1F [Compound I-126] | – | – | 6.25 nM | 1.24 nM |
| CCCCOc1ccc(CN(Cc2coc(C)n2)C(=O)CCC2CCNCC2)cc1F [Compound I-127] | 100 to 5000 nM | 10 to 100 nM | – | – |
